Assay results: PubChem BioAssay (NCI)
“And” between values parts separate entries of the source, which are not always exact repeats. Equal values may be shown once.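 Following 48 hours of exposure in 96-well plates, responses at five concentrations were used to interpolate endpoints linearly. The concentration for 50% growth inhibition is given as GI50. TGI: total growth inhibition.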

Experiments:
Assay in all cases: NCI tumour cell line growth inhibition, 48 h
COLO 205 colon = tested on: COLO 205 colon
KM12 colon = tested on: KM12 colon
NCI-H226 lung = tested on: NCI-H226 lung
OVCAR-3 ovarian = tested on: OVCAR-3 ovarian
PC-3 prostate = tested on: PC-3 prostate
RXF 393 renal = tested on: RXF 393 renal
SNB-75 CNS = tested on: SNB-75 CNS
UACC-257 melanoma = tested on: UACC-257 melanoma
UACC-62 melanoma = tested on: UACC-62 melanoma
HOP-92 NSCLC = tested on: HOP-92 NSCLC

| Structure (SMILES) | GI50 (COLO 205 colon) [µM] | TGI (COLO 205 colon) | GI50 (KM12 colon) [µM] | TGI (KM12 colon) | GI50 (NCI-H226 lung) [µM] | TGI (NCI-H226 lung) [µM] | GI50 (OVCAR-3 ovarian) [µM] | TGI (OVCAR-3 ovarian) | GI50 (PC-3 prostate) [µM] | TGI (PC-3 prostate) [µM] | GI50 (RXF 393 renal) [µM] | TGI (RXF 393 renal) | GI50 (SNB-75 CNS) [µM] | TGI (SNB-75 CNS) | GI50 (UACC-257 melanoma) [µM] | TGI (UACC-257 melanoma) | GI50 (UACC-62 melanoma) [µM] | TGI (UACC-62 melanoma) | TGI (HOP-92 NSCLC) | GI50 (HOP-92 NSCLC) [µM] |
| --- | --- | --- | --- | --- | --- | --- | --- | --- | --- | --- | --- | --- | --- | --- | --- | --- | --- | --- | --- | --- |
| O=C(c1cccs1)c1nc2cc(Cl)ccc2[n+]([O-])c1C(F)(F)F | > 100 | > 100 µM | 85.4 | > 100 µM | > 100 | > 100 | > 100 | > 100 µM | 71.4 | > 100 | 44.3 | > 100 µM | 57.3 | > 100 µM | 49.9 | > 100 µM | 67.8 | > 100 µM |  |  |
| NC(=S)N/N=C(\CCC(=O)Nc1ccccc1[N+](=O)[O-])CC(=O)c1ccco1 |  | > 100 µM |  | > 100 µM |  | > 100 |  | > 100 µM |  |  |  | > 100 µM |  | > 100 µM |  | > 100 µM |  | > 100 µM | > 100 µM |  |
| NC(CO)c1ccc(OCc2ccccc2)cc1 (stereo not given) |  | > 100 µM |  | > 100 µM |  | > 100 |  | > 100 µM |  |  |  | > 100 µM |  | 98.9 µM |  | > 100 µM |  | > 100 µM | 98.1 µM |  |
| CCC1c2cc3n(c(=O)c2COC1O)Cc1c-3nc2ccccc2c1Cl (stereo not given) |  | > 100 µM |  | > 100 µM |  | > 100 |  | > 100 µM |  |  |  | > 100 µM |  | > 100 µM |  | > 100 µM |  | > 100 µM | > 100 µM |  |
| Cc1cc2c(cc1C)[n+](=O)c(C(=O)CC(=O)C(=O)Nc1ccccc1C(C)C)c(C)n2[O-] |  | > 100 µM |  | > 100 µM |  | > 100 |  | > 100 µM |  |  |  | > 100 µM |  | > 100 µM |  | 5.82 µM |  | > 100 µM | > 100 µM |  |
| COc1cc(C2C(C(=O)O)=C(COC(C)=O)Oc3cc4c(cc32)OCO4)cc(OC)c1OC(C)=O (stereo not given) |  | > 100 µM |  |  |  |  |  | > 100 µM |  |  |  | > 100 µM |  | > 100 µM |  | > 100 µM |  | > 100 µM | > 100 µM |  |
| O=C(O)c1ccc(Oc2nc3ccccc3s2)cc1 |  | > 100 µM |  | > 100 µM |  | > 100 |  | > 100 µM |  | > 100 |  | > 100 µM |  |  |  | > 100 µM |  | > 100 µM | > 100 µM |  |
| O=C(O)CCC1CCc2cccc(OCC(=O)O)c2C1=O (stereo not given) |  | > 100 µM |  |  |  |  |  | > 100 µM |  |  |  | > 100 µM |  | > 100 µM |  | > 100 µM |  | > 100 µM | > 100 µM |  |
| N#Cc1c2ccccc2c2nnc3ccc(C(F)(F)F)cc3n12 | 39.4 | > 100 µM | 61.2 | > 100 µM |  |  | 38.2 | > 100 µM | 61.1 | > 100 | 23.4 | 80.3 µM | 47.6 | > 100 µM | 21.2 | 76.3 µM | 66.8 | > 100 µM | > 100 µM | 91.6 |
| O=c1c(O)cc2c(O)oc3c(=O)c(O)c(O)c4c(O)oc1c2c43 |  | > 100 µM |  | > 100 µM |  | > 100 |  | > 100 µM |  |  |  | > 100 µM |  | > 100 µM |  | > 100 µM |  | > 100 µM | > 100 µM |  |
| CC(=O)OCC1OC([Se-])C(OC(C)=O)C(OC(C)=O)C1OC(C)=O.N#CCC[PH+](CCC#N)CCC#N.[Au+] (stereo not given) | 17.6 | > 100 µM | 10.3 | > 74.5 µM | 3.73 | 16.3 | 7.3 | 49.7 µM |  |  | 3.14 | > 100 µM | 21.3 | > 100 µM | 5.93 | 13.6 µM | 5.12 | 30.6 µM | 52.2 µM | 12.1 |
| O=C(Cc1ccccc1)N/N=C(/c1nc2ccc([N+](=O)[O-])cc2[nH]c1=O)C(O)c1ccccc1Cl (stereo not given) |  | > 100 µM |  | > 100 µM |  | > 100 |  |  |  |  |  |  |  | > 100 µM |  | > 100 µM |  | > 100 µM | > 100 µM |  |
| C=C1C(=O)c2cc3c(cc2C(c2cc(OC)c(OC)c(OC)c2)[C@@H]1C(=O)O)OCO3 (stereo not given in full) |  | > 100 µM |  | > 100 µM |  | > 100 |  | 72.8 µM |  |  |  | > 100 µM |  | 61.1 µM |  | > 100 µM |  | > 100 µM | 75.4 µM |  |
| Cc1ccc(NC(=O)/C(=N\NC(N)=S)C(C#N)c2ccccc2C)cc1C (stereo not given) |  | > 100 µM |  | > 100 µM |  | > 100 |  | > 100 µM |  |  |  |  |  | > 100 µM |  | > 100 µM |  | > 100 µM | > 100 µM |  |
| CCc1cccc(CC)c1NC(=O)CC1SC(N)=NC1=O (stereo not given) |  | > 100 µM |  | > 100 µM |  | > 100 |  | > 100 µM |  |  |  | > 100 µM |  | > 100 µM |  | > 100 µM |  | > 100 µM | > 100 µM |  |
| Cn1c2cc([N+](=O)[O-])ccc2c(=O)c2c(O)cc3c(c21)C=CC(C)(C)O3 |  | > 100 µM |  | > 100 µM |  |  |  |  |  |  |  | 74.5 µM |  | 25.7 µM |  | > 100 µM |  | > 100 µM |  |  |
| O=C(N/C=C/C=C/Sc1ccccc1)OCc1ccccc1 |  | 31.6 µM |  | 36.1 µM |  | 41.3 |  | 32 µM |  |  |  | 35.6 µM |  | 42.4 µM |  | 39.5 µM |  | 29.9 µM | 52.7 µM |  |
| C=C(COC(C)=O)CC(/C=C(\C)CC/C=C(\C)CO)OC(C)=O (stereo not given) |  | > 100 µM |  | > 100 µM |  | > 100 |  | > 100 µM |  |  |  | > 100 µM |  | > 100 µM |  |  |  | > 100 µM | > 100 µM |  |
| O=C([O-])CCc1ccccc1.O=C([O-])CCc1ccccc1.O=C([O-])CCc1ccccc1.O=C([O-])CCc1ccccc1.[Mo+2].[Mo+2] | > 100 | > 100 µM | > 100 | > 100 µM | > 100 | > 100 | > 100 | > 100 µM |  |  | > 100 | > 100 µM |  |  | > 100 | > 100 µM | > 100 | > 100 µM | > 100 µM | 43.4 |
| CCOC(=O)Nc1ccc2c(c1)N(C(=O)CCN(CC)CC)c1ccccc1S2 | 47 | 47.7 µM and 120 µM | 35.9 | 24.6 µM and 110 µM |  |  | 42.3 | > 78.9 µM and 107 µM |  |  | 15.4 | 64.1 µM and 59.5 µM | 11.7 | 39.2 µM and 62.7 µM | 12.4 | 32.3 µM and 35.4 µM | 46.7 | 52.8 µM and 112 µM | 67.8 µM and 73.5 µM | 14.2 |
